Laboratory results taken from US9073880B2, “2-(2-phenylethenyl) 1,3-benzodiazepine derivatives useful for the treatment of cancer” (Yissum Research Development Company of the Hebrew …, priority 2010, dated 2015).

Tests used:
Assay type in all cases: cell-based
[1] = tested on: Human ovary cancer A2780 cells; experiment: Cell proliferation, A2780 (Example 4); conditions: compound in 2-hydroxypropyl-β-cyclodextrin
Experimental: (§1) Human ovary cancer A2780 cells lines were seeded at a density of 5000 cells/well, human melanoma A375 cells were plated at a density of 2,500 cells/well, human colon carcinoma HCT15 cells were plated at a density of 3,000 cells/well, human prostate carcinoma PC3 cells were plated at a density of 1,500 cells/well, human breast carcinoma MCF7 cells were plated at a density of 5,000 cells/well, human breast carcinoma MDA MB 468 cells were plated at a density of 6,000 cells/well, human myeloma U266, RPMI8226 and CAG cells were plated at a density of 10,000 cells/well. All cells were plated in 96-well plates in 90 μl growth medium containing 10% FCS, 100 units/ml penicillin and 100 μg/ml streptomycin. Compound 3 was added a day later in […] of 1% DMSO in DDW to obtain final concentrations of 0, 0.1, 0.3, 1, 3, and 10 μM. The final concentration of DMSO (0.1% DMSO) was kept constant in all samples. Following exposure of the cells to compound 3 for 72 hours at 37° C., adhered cells were fixed in 0.5% gluteraldehyde in medium for 10 min, washed three times with DDW, once with 0.1M sodium borate buffer pH 8.5 and stained with 1% methylene blue dissolved in 0.1M borate buffer solution for 60 min. Excess dye was washed out and cell-bound dye was eluted with 200 μl/well of 0.1M HCl. The optical density values were read at 630 nm in ELISA plate reader. Non-adhered cells were exposed to WST-1 reagent for 5 hours following 72 hours treatment with the inhibitors, and optical density values were read at 630 nm in ELISA plate reader. The data was analyzed in Microsoft Excel, using the vehicle control as 100% proliferation. The assays were performed in triplicates. The values of IC50 were derived from the dose-dependent growth curves obtained.
(§2) Cell proliferation assay was performed as described in Example 2. […]

[2] = tested on: human colon carcinoma HCT116 cells; experiment: Cell proliferation, HCT116 (Example 4); conditions: HCT-116, HCT116, colon cancer, compound in 2-hydroxypropyl-β-cyclodextrin
Experimental: as §1
(§3) Cell proliferation assay was performed as described in Example 2. The following cell line were plated in 96-well plates in 90 μl growth medium containing 10% FCS, 100 units/ml penicillin and 100 μg/ml streptomycin: human ovary cancer A2780 cells (4500 cells/well), human melanoma A375 (1500 cells/well) and YUMAC (2500 cells/well) cells, human colon carcinoma HCT15 (3000 cells/well) and HCT116 (2000 cells/well) cells, human prostate carcinoma PC3 (3000 cells/well), PC3MM2 (3500 cells/well) and DU145 (300 cells/well) cells, human hepatocarcinoma HepG2 (3000 cells/well), human Ewing sarcoma SK-ES-1 (4,500 cells/well), human glioblastoma U138MG (2,000 cells/well), human breast cancer T47D (4000 cells/well) and MDA-MB-468 (6000 cells/well) cells, human small cell lung carcinoma NCI-H1975 (5000 cells/well) cells, human osteosarcoma Saos-2 (5000 cells/well) cells, human pancreatic cancer ASPC (2500 cells/well) cells, human bladder carcinoma T24P (1000 cells/well) cells, human gastric cancer NCI-N87 (5000 cells/well) cells, human lymphoma KARPAS (5,000 cells/well) cells, human leukemia K562 (5,000 cells/well) cells and human multiple myeloma MM1S (10,000 cells/well), U266 (10,000 cells/well) and CAG (5,000 cells/well). Compounds 2-5 and 7-8 were added a day later in 10 μl of 0.7% 2-hydroxypropyl-β-cyclodextrin to obtain final concentrations of 0, 0.1, 0.3, 1, 3 and 10 μM.
(§4) Compounds 2-5 and 7-8 of the present invention were tested for their inhibitory potential in cell proliferation assay. […]

[3] = tested on: human hepatocarcinoma HepG2 cells; experiment: Cell proliferation, HepG2 (Example 4); conditions: compound in 2-hydroxypropyl-β-cyclodextrin
Experimental: as §1, §2

[4] = tested on: human Ewing sarcoma SK-ES-1 cells; experiment: Cell proliferation, SK-ES-1 (Example 4); conditions: SK-ES1, SK-ES-1, Ewing sarcoma, compound in 2-hydroxypropyl-β-cyclodextrin
Experimental: as §1, §2

[5] = tested on: human glioblastoma U138MG cells; experiment: Cell proliferation, U138MG (Example 4); conditions: U138-MG, compound in 2-hydroxypropyl-β-cyclodextrin
Experimental: as §1, §2

human NCI-H1975 cells = experiment: Cell proliferation, NCI-H1975 (Example 4); conditions: NCI-H1975, SCLC, compound in 2-hydroxypropyl-β-cyclodextrin
Experimental: as §1, §2

[6] = tested on: human pancreatic cancer ASPC cells; experiment: Cell proliferation, ASPC (Example 4); conditions: compound in 2-hydroxypropyl-β-cyclodextrin
Experimental: as §1, §3, §4

[7] = tested on: human multiple myeloma MM1S cells; experiment: Cytotoxicity of combination with Velcade in MM1S cells (CellTiter Glo); conditions: for α/a+β/b (synergism if <1): combination with Velcade, three days; for combined effect with Velcade versus Bliss additive effect: compound 0.1 or 0.2 M (so in the source), 1 and 1.5 nM Velcade, FIGS. 8 and 9
Experimental: Human multiple myeloma MM1S cells were plated at a density of 10,000 cells/well in 96-well plates in 90 μl growth medium containing 10% FCS, 100 units/ml penicillin and 100 μg/ml streptomycin. Velcade® (i.e. bortezomib or PS-341) was obtained from LC Laboratories. Compounds 3 and 5 were added a day later in 5 μl of 0.7% 2-hydroxypropyl-β-cyclodextrin in DDW to the multiple myeloma cell plates to obtain final concentrations of […]. Velcade® was added in 5 μl of 1% DMSO to obtain final concentrations of 0, 0.5, 1 and 1.5 nM. Three days later CellTiter Glo reagent (100 μl/well) was added to the medium (1:1), shaked, and following 10 min incubation transferred to 96-well white plates and read in a Luminometer. The data was analyzed in Microsoft Excel, using the vehicle control as 0% cytotoxicity. The assays were performed in triplicates. Cytotoxicity (%) was calculated as follows: [(absorbance of control cells—absorbance of drug-treated cells)/absorbance of control cells]×100. In FIGS. 8 and 9 the Bliss additivism model (Cardone et al. Science (1998), 282: 1318-1321) was used to calculate the combined effect using the following formula: Ebliss=EA+EB−EA×EB, where EA and EB are the fractional inhibitions obtained by drug A alone and drug B alone at specific concentrations. […] The synergic effect was calculated in an additional method in which the existence of α/a+β/b<1 was tested (a is the IC50 of drug A in the absence of drug B, α is the IC50 of drug A in the presence of drug B, b is the IC50 of drug B in the absence of drug A, β is the IC50 of drug B in the presence of drug A).

Row | Compound | IC50 [1] [nM] | IC50 [2] [nM] | IC50 [3] [nM] | IC50 [4] [nM] | IC50 [5] [nM] | IC50 (human NCI-H1975 cells) [nM] | IC50 [6] [nM] | α/a+β/b (synergism if <1) [7] | combined effect with Velcade versus Bliss additive effect [7]
1 | O=c1c(O)cc2cnc(/C=C/c3cc(O)c(O)c(Br)c3)sc-2c1O [Compound 3] | 400 | 500 | 900 | 300 | 300 | 1000 | 13100 | 0.7 | strong synergistic effect
2 | O=c1c(O)cc2cnc(/C=C/c3ccc(O)c(O)c3Br)sc-2c1O [Compound 5] | 400 | 400 | 1600 | 600 | 300 | 800 | 8200 | 0.6 | strong synergistic effect
